Two molecules from ChEMBL document CHEMBL1949624, “Synthesis of a spin-labeled anti-estrogen as a dynamic motion probe for the estrogen receptor ligand binding domain” (Bioorg Med Chem Lett, 2012) can be followed below.

The target of experiment [1] is Estrogen receptor beta (Homo sapiens) (UniProt Q92731). In words: Relative binding affinity to ERbeta LBD by competitive binding assay.
The nature of experiment [2]: Selectivity ratio of relative binding affinity for ERbeta receptor LBD to relative binding affinity for ERalpha receptor LBD.
Experiment [3] concerns the target T1, Estrogen receptor (Homo sapiens) (UniProt P03372).
T1 sequence (whole entry): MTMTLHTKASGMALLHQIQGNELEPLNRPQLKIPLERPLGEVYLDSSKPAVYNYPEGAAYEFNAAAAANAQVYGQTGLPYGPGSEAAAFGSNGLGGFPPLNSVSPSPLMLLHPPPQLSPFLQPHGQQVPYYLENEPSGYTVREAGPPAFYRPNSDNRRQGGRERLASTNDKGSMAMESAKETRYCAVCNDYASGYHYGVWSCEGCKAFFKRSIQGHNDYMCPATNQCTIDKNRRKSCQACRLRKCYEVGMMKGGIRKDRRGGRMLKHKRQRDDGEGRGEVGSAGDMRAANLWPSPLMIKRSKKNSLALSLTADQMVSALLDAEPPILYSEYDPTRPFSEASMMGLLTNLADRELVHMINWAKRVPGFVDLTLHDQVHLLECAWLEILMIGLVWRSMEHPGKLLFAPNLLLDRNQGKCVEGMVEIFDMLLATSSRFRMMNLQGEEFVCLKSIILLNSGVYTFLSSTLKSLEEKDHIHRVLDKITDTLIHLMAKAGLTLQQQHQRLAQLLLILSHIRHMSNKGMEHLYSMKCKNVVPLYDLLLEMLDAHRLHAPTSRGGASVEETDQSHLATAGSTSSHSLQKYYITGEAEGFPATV
The experiment can be described thus: Relative binding affinity to ERalpha LBD by competitive binding assay.

Sequence of Estrogen receptor beta (Homo sapiens) (Q92731 whole entry, the tested form may be a part): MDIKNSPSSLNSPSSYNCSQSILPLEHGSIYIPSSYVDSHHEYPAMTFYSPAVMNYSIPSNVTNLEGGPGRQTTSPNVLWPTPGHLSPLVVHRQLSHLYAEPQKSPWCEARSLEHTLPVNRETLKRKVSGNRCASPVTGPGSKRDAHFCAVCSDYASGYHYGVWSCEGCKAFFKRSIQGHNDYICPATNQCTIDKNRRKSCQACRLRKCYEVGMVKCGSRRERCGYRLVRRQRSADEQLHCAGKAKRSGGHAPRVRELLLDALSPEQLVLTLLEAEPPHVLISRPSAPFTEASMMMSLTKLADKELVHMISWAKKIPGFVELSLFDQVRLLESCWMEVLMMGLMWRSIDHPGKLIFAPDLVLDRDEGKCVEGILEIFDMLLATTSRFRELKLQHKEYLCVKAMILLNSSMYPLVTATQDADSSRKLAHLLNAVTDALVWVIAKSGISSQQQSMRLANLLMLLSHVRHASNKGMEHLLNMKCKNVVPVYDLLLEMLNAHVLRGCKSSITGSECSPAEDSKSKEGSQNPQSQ

`C[C@]12C[C@H](c3ccc(OCCN=[N+]=[N-])cc3)[C@@H]3c4ccc(O)cc4CC[C@H]3[C@@H]1CC[C@@H]2O`: the RBA in experiment [1] was 33.7%. For the same molecule, the Selectivity ratio in experiment [2] worked out at 0.86.

As for `CC1(C)CC(NCc2cn(CCOc3ccc([C@H]4C[C@]5(C)[C@@H](O)CC[C@H]5[C@@H]5CCc6cc(O)ccc6[C@H]54)cc3)nn2)CC(C)(C)N1[O]`, the RBA in experiment [3] is 4.5%; in experiment [1], 1.9%. Besides, the Selectivity ratio in experiment [2] turned out to be 0.43.
